For data set [1], the system named is Klebsiella pneumoniae PCI 602. In words: Minimum inhibitory concentration (MIC). The class given is cell-based. The conditions noted are these: Klebsiella pneumoniae, PCI602, Klebsiella pneumoniae PCI 602, Gram -; read-out: Minimum inhibitory concentration (MIC). Here is the method:
(§1) The compounds of the present invention (A, C, E, F, G, H and I) and ofloxacin as control were dissolved in 0.1N aqueous potassium hydroxide to prepare a solution of 5000 μg/ml in concentration. The compounds of the present invention (B, D and J) were dissolved in sterilized distilled water to prepare a solution of 5000 μg/ml in concentration. Each solution was diluted with sterilized distilled water to prepare a standard solution with a concentration of each test compound: 1000 μg/ml. The test was carried out by a method approved by Japan Society of Chemotherapy [cf. Chemotherapy, 29, 76-79 (1981)(TOKYO)].

Data set [2] concerns Pseudomonas aeruginosa IFO 3445. Put plainly: Minimum inhibitory concentration (MIC). The data set is classed as cell-based. The note with it: Pseudomonas aeruginosa IFO 3445, Gram -. The procedure: as §1
Data set [3] concerns Serratia marcescens IAM 1184. Put plainly: Minimum inhibitory concentration (MIC). The class given is cell-based. The conditions noted are these: Serratia marcescens IAM 1184, Gram -. The procedure: as §1
The subject of data set [4] is Streptococcus faecalis IID 682. Put plainly: Minimum inhibitory concentration (MIC). The class given is cell-based. The note with it: Streptococcus faecalis IID 682, Gram +. The procedure: as §1
Data set [5] has as its system methicillin resistant Staphylococcus aureus. In words: Minimum inhibitory concentration against clinically isolated methicillin resistant Staphylococcus aureus. The class given is cell-based. Here is the method: The compound (B) was dissolved in sterilized distilled water, and ofloxacin in 0.1N aqueous potassium hydroxide, to prepare a solution of 5000 μg/ml in concentration each. The above solutions were then diluted with sterilized distilled water to prepare a standard solution with a concentration of the test compound: 1000 μg/ml each. The test was carried out by a method approved by Japan Society of Chemotherapy (ibidem) to measure minimum inhibitory concentration (MIC) against 54 strains of clinically isolated methicillin resistant Staphylococcus aureus, from which there were calculated a range of MIC (MICrange) of the test compound against these resistant strains, a minimum concentration for inhibiting the growth of the strains by 50% (MIC50) and a minimum concentration for inhibiting the growth of the strains by 90% (MIC90).

The subject of data set [6] is Staphylococcus aureus IID 803. In words: Effect on treatment of general infectious disease. The class given is in vivo, ddY male mice. The note with it: IID803, 168 h, S. aureus IID 803, 1.0×10^6 CFU/mouse i.p., oral one hour after infection, survival after one week. The procedure:
Staphylococcus aureus IID 803 (1.0×10^6 CFU/mouse)
(§2) The test microorganisms were subjected to standing culture in Trypto-Soya Agar "Nissui" (made by Nissui Seiyaku K.K., Japan) at 37° C. for 16 to 18 hours. The culture was then diluted with PBS (Dulbecco's phosphate buffered saline) and mixed with an equivalent amount of 10% (w/v) Mucin (BACTO MUCIN BACTERIOLOGICAL, made by Difco Co.) to prepare a microorganism solution. The thus prepared microorganism solution (0.5 ml each) was intraperitoneally innoculated to ddY male mice (4 weeks age, weighing 20-22 g, 5 mice in each group), to infect the animals. One hour after the infection, the compound (B) of the present invention dissolved in sterilized distilled water or ofloxacin suspended in 0.5% (w/v) aqueous sodium carboxymethyl cellulose solution was orally adiministered to mice.
(§3) The mice were daily observed for one week, and from the survival number of mice after one week, the 50% effective dose (ED50) was calculated by Weil method.

In the next data set the test system is Escherichia coli KC-14. Put plainly: Effect on treatment of general infectious disease. The class given is in vivo, ddY male mice. The note with it: KC14, 168 h, E. coli KC-14, 1.2×10^4 CFU/mouse i.p., oral one hour after infection, survival after one week. Here is the method:
Escherichia coli KC-14 (1.2×10^4 CFU/mouse)
as §2, §3

The test system of data set [7] is Pseudomonas aeruginosa E-2. In words: Effect on treatment of general infectious disease. The class given is in vivo, ddY male mice. The conditions noted are these: E2, 168 h, P. aeruginosa E-2, 1.6×10^4 CFU/mouse i.p., oral one hour after infection, survival after one week. The procedure:
Pseudomonas aeruginosa E-2 (1.6×10^4 CFU/mouse)
as §2, §3

For the next data set, the system named is E. coli KC-14. In words: Effect on treatment of infectiousness of the genito-urinary tract. The class given is in vivo, ICR female mice. The conditions noted are these: Escherichia coli, KC14, 48 h; E. coli KC-14, 5.6×10^5 CFU/mouse into urinary bladder; oral; not more than 10^4 living bacteria/1 g of kidney regarded as effective. Here is the method: 2. Test microorganism and inoculum size E. coli KC-14 (5.6×10^5 CFU/mouse) 3. Method:
A microorganism solution (0.1 ml) prepared in the same manner as described in Experiment 3 was introduced into urinary bladder through urinary tract of ICR female mice (5 weeks age, weighing 20 to 22 g, 5 mice in each group), and then urinary meatus was clasped with clip for 4 hours to infect the animals. After taking off the clip, the compound (B) of the present invention dissolved in sterilized distilled water or ofloxacin suspended in 0.5% aqueous sodium carboxymethyl cellulose solution was orally administered to mice. Two days after the infection, mice kidneys were taken out and weighed, to which PBS (Dulbecco's phosphate buffered saline) was added and the mixture was homogenized. The homogenate was then diluted with PBS and inoculated onto a plate of modified Drigalski Agar (BTB lactose agar "Nissui", made by Nissui Seiyaku K.K., Japan) and cultured at 37° C. for 18 hours. The number of the colonies of infectious bacteria grown on the plate was counted. The number of living bacteria per 1 g of kidney was calculated from the number of colonies and the kidney weight. The living bacteria number/1 g of kidney of not more than 10^4 was regarded as effective and an effective dose for 50% mice (ED50) was calculated by Weil method.

Another data set relates to ddY male mice. In words: Acute toxicity (LD50). The data set is classed as in vivo. The note with it: oral, ddY male mice fasted for 18 hours, Weil method. The procedure:
The compound (B) of the present invention was dissolved in sterilized distilled water and the solution was orally administered to ddY male mice (5 weeks age, weighing 20 to 25 g, 5 mice in each group), which had been fasted for 18 hours.

Structures can show the parent of a compound that is named as a salt.

Take `CN1CCN(c2c(F)cc3c(=O)c(C(=O)O)c4scc5n4c3c2OC5)CC1` [Compound (B), 9,1-Epoxymethano-7-fluoro-8-(4-methyl-1-piperazinyl)-5-oxo-5H-thiazolo[3,2-a]quinoline-4-carboxylic acid.hydrochloride]: the MIC is 0.025 µg/mL in [1] and 0.1 to 0.39 µg/mL in [5] (54 strains of clinically isolated methicillin resistant Staphylococcus aureus). Also, the “Minimum inhibitory concentration (MIC)” value in data set [2] was found to be 1.56 µg/mL; in data set [3], 0.39 µg/mL; in data set [4] it was 0.78 µg/mL. Besides, in [5] (Staphylococcus aureus, minimum concentration for inhibiting the growth of the strains by 50%, 54 strains), the MIC50 was found to be 0.2 µg/mL. Besides, in [5] (Staphylococcus aureus, minimum concentration for inhibiting the growth of the strains by 90%, 54 strains), the MIC90 came to 0.2 µg/mL. Besides, the ED50 in data set [6] was 8.1 mg/kg; in the data set with Escherichia coli KC-14 it was 1 mg/kg; in [7], 17.7 mg/kg; with E. coli KC-14, 21.7 mg/kg. This molecule yielded an LD50 in the data set on ddY male mice of 1231 mg/kg.

Broadly, the MIC50 is an inhibitory concentration at the 50% level, which refers to growth in some studies and to a panel of isolates in others. High values mean lower susceptibility, low ones higher susceptibility. As usually defined, the MIC90 is an inhibitory concentration at the 90% level, which refers to growth in some studies and to a panel of isolates in others. Read a high MIC90 as lower susceptibility. By ED50 is commonly meant the dose at which the effect has come halfway, by size or by number of responders. Higher therefore signals a need for a large dose. By LD50 is commonly meant the dose at which mortality reaches 50%. Higher therefore signals lower toxicity.

(Values after patent US4808584A, “Quinolinecarboxylic acid derivatives and antibacterial agent containing the same” (Kanebo, Ltd., priority 1987, dated 1989).)
